From US20050180921A1, “Contrast agents to improve gastrointestinal tract opacification during abdominal and pelvic CT scans” (priority 2004, published 2005)

System: gastrointestinal tract
Assay: CT of abdomen and pelvis after oral agent: bowel distension, wall visualization, transit to colon
Format: in vivo, human
Experimental: Institutional review board approval was obtained. These materials were offered to outpatients (ranging from 18 to 89 years of age) in random fashion. In each case, the patient was given literature to explain the project and then asked to sign a consent form. Those who declined participation in the study were given dilute iodinated contrast or water as appropriate for the exam. […] The amount of each material, 1600 cc, and timing, approximately 60 minutes, were standard for the preparation protocol used with dilute iodinated contrast. Although scanning parameters varied slightly, depending on the clinical question, all patients received 5 mm or less slices through the abdomen and pelvis. […] Where given, the intravenous contrast agent was administered from 3-5 cc/sec for 100-150 cc of 300 mg % non-ionic contrast.
Each drink was labeled with a letter A-E to blind the administered substance to the reader. […] Each CT scan was read by consensus by two readers. Each exam was rated for various characteristics. The stomach was rated for distention: 1=well distended; 2=adequate distention; 3=poor distention. The small bowel was rated for two characteristics. The distention was assessed with measurements taken from the left upper quadrant (LUQ), the pelvis, and the right lower quadrant (RLQ) areas. Three measures were taken at each area with the greatest diameters used. The diameters were then averaged. The definition of the bowel wall was also graded using visualization of the wall separate from the luminal contents as well as the ability to appreciate the valvulae conniventes when present (1=excellent, 2=good, 3=fair, 4=poor, 5=non-diagnostic). Finally, an attempt was made to assess whether the ingested liquid was able to reach the colon during the preparation time period (0=no oral contrast in colon, 1=oral contrast in colon).

In the case of `O` [Water, water], the “LUQ small bowel distention (averaged greatest diameters)” value (1600 cc oral, approximately 60 minutes, left upper quadrant, group mean) was 17.50 mm, the “Pelvis small bowel distention (averaged greatest diameters)” value (1600 cc oral, approximately 60 minutes, pelvis, group mean) was 14.79 mm and the “RLQ small bowel distention (averaged greatest diameters)” value (1600 cc oral, approximately 60 minutes, right lower quadrant, group mean) was 14.14 mm. For the same compound, the “mid to distal / small bowel distention, result in words” value (FIGS. 2A-2D and study in general) was “least effective”, the “Wall (definition of the bowel wall, qualitative evaluation)” value (mean grade, 1=excellent, 2=good, 3=fair, 4=poor, 5=non-diagnostic) was 2.23 and the “Stomach (distention, qualitative evaluation)” value (mean grade, 1=well distended, 2=adequate distention, 3=poor distention) was 2.13. For the same compound, the “Colon (ingested liquid reached the colon during preparation time)” value (mean, 0=no oral contrast in colon, 1=oral contrast in colon) was “.020”.
